Test results as given in patent US20160264616A1, “THERAPEUTIC COMPOUNDS AND METHODS” (priority 2015, published 2016).
Like-named read-outs stand apart in the source and are kept apart here.

Tests used:
[1] = target: T1, Gαo:RGS17 protein:protein interaction (Homo sapiens, UniProt Q9UGC6); experiment: AlphaScreen Gαo:RGS17 protein:protein interaction assay (HTS and dose-response); assay type: binding; settings: for inhibition at 100 µM: read-out: inhibition of the AlphaScreen assay; for inhibition of the interaction of RGS17 with Gαo: AlphaScreen dose-response, n=3 in triplicate
T1 construct: This is the same RGS17 construct used in the high throughput screening campaign that is fully active despite the N-terminal truncation; made in house; host or cells: BL21 (DE3) E. coli for Gαo
T1 sequence (Q9UGC6 84-200 limits assumed): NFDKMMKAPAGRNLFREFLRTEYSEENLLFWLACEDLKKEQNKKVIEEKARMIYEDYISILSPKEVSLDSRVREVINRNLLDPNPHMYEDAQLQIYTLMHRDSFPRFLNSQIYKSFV
Experimental: The primary biochemical screen was designed to identify compounds that function as inhibitors of the Gαo:RGS17 ppi. This was accomplished by miniaturizing our previously published HTS paradigm in a 1536-well format (17). […] We interrogated the 2320 compound containing MicroSource […] Diversity library (Discovery Systems, Inc. Gaylordsville, Conn.) (FIG. 3).
In total, 2,320 compounds from the MicroSource […] chemical library were screened at a concentration of 40 μM. Two 1536-well plates containing 1,280 compounds and 128 wells of DMSO controls were used. RGS17-anti-GST and Gαo-biotin-streptavidin beads were prepared as previously described. In brief, 100 μg (20 μL) of beads were coupled to 20 ng (10 nM) of each binding partner (Gαo:RGS17) and incubated for 30 min on ice. Then, 4.5 μL of RGS17-anti-GST beads were added using a FlexDrop IV (PerkinElmer, Waltham, Mass.) and incubated for 10 min with compound while the Gαo-biotin-streptavidin beads were incubated with AMF. After incubation, 4.5 μL of the Gαo-biotin-streptavidin bead/protein mixture was added to compound containing wells and incubated on ice for 1.25 hours and read at room temperature using the EnVision plate reader with monochromators.
Experiments were carried out similarly to the high-throughput AlphaScreen assay except this was completed using Corning 384-well white flat bottom plates and the final total volume was 60 μL, with 20 µL of Gαo-biotin-streptavidin and RGS17-anti-GST beads at a final concentration of 10 nM. Then, 20 μL of compounds in a half log dilution series to yield a final range from 1 nM to 100 μM was added to RGS17-anti-GST beads and incubated for 10 min in the dark on ice. Next, 20 μL of Gαo-biotin-streptavidin beads were then added in the presence of AMF and GDP. Negative controls were determined in the absence of AMF and compound. Maximum binding was determined in the absence of compounds but in the presence of AMF and GDP.

Gαo = target: T2, Gαo (Homo sapiens, UniProt P09471); experiment: Differential scanning fluorimetry (DSF) with Gαo; assay type: binding; settings: 50 μM compound
T2 construct: 6xHis; made in house; host or cells: BL21 (DE3) E. coli (printed 'B1-21 (DE3)')
Experimental: Further evaluation of the compounds designated UI-5, UI-1590, UI-1907 and UI-1956 was conducted using Differential Scanning Fluorimetry (DSF). This method allows for the rapid measurement of protein stability based on the melting temperature (Tm) of the target protein that is bound by ligand. A shift of Tm indicates a change in protein stability to melting due to stabilization added by the small molecule binding to the target protein. The four compounds were incubated at 50 μM with RGS17 or Gαo in the presence of Sypro Orange. In aqueous solution the fluorescence emission from the dye is very weak. […] The hydrophobic parts of a native, fully folded, protein in solution are generally buried within the protein and therefore not accessible to the dye resulting in little fluorescence emission. When the protein unfolds the dye molecules can bind to the exposed hydrophobic regions of the proteins, resulting in increased fluorescence. […]
Differential scanning fluorimetry experiments were carried out using white 384-well μltraAMP PCR plates (Sorenson BioSciences; Salt Lake City, Utah). […] All data was collected using the Roche LightCycler data acquisition ability and analyzed with Graphpad Prism 6.0, using first and second derivatives of the fluorescent melting curves.

T2 sequence (P09471 whole entry): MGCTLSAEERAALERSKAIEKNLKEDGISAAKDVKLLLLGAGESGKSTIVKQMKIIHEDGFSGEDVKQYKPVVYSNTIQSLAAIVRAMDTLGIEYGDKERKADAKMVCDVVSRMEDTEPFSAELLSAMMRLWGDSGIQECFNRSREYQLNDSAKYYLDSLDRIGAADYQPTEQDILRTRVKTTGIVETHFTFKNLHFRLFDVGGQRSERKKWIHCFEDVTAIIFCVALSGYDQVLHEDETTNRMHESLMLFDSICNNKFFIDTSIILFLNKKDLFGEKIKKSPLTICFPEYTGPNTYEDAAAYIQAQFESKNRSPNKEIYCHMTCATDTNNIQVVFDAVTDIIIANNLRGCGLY

SMILES: O=c1c(-c2cc(O)c(O)c(O)c2)coc2cc(O)c(O)c(O)c12 [UI-1956, 5,6,7-trihydroxy-3-(3,4,5-trihydroxyphenyl)-4H-chromen-4-one]
- inhibition at 100 µM ([1]; 100 μM compound, from dose-response experiments): > 25%
- inhibition of the interaction of RGS17 with Gαo [1]: dose dependent manner

SMILES: CC(C)=CCC[C@]1(C)C=Cc2c(O)c3c(c(CC=C(C)C)c2O1)O[C@]12C(=C[C@@H]4C[C@H]1C(C)(C)O[C@@]2(C/C=C(/C)C(=O)O)C4=O)C3=O [UI-1907]
- effect on Gαo thermal stability (DSF) (Gαo): decrease the thermal stability of the Gαo subunit
- inhibition of the interaction of RGS17 with Gαo [1]: dose dependent manner
- inhibition at 100 µM [1]: > 25%

SMILES: CC1=C(O)C(=O)C=C2C1=CC=C1[C@@]2(C)CC[C@@]2(C)[C@@H]3C[C@](C)(C(=O)O)CC[C@]3(C)CC[C@]12C [UI-1590]
- inhibition of the interaction of RGS17 with Gαo [1]: dose dependent manner
- inhibition at 100 µM [1]: > 25%

SMILES: C[n+]1cc2c3c(ccc2c2ccc4cc5c(cc4c21)OCO5)OCO3 [UI-5]
- inhibition of the interaction of RGS17 with Gαo [1]: dose dependent manner
- inhibition at 100 µM [1]: > 25%
